Test results reported in PubChem BioAssay (NCI).
“And” between values parts separate entries of the source, which are not always exact repeats. Equal entries are not always repeated.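 The compound was tested at five concentrations on cells cultured in 96-well plates, with a 48-hour exposure period. GI50 = concentration required for 50% inhibition of growth. TGI: concentration producing complete growth inhibition.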

Tests used:
Assay in all cases: DTP human tumour cell line panel, 48 h
DLD-1 colon = test system: DLD-1 colon
EKVX NSCLC = test system: EKVX NSCLC
HOP-92 NSCLC = test system: HOP-92 NSCLC
IGROV1 ovarian = test system: IGROV1 ovarian
MALME-3M melanoma = test system: MALME-3M melanoma
MDA-N = test system: MDA-N
OVCAR-4 ovarian = test system: OVCAR-4 ovarian
RPMI-8226 leukemia = test system: RPMI-8226 leukemia
SF-539 CNS = test system: SF-539 CNS
TK-10 renal = test system: TK-10 renal

Which results are given for `O=C1C(=O)c2ccccc2C(O)=C1CC=C(Cl)Cl`?
GI50 (DLD-1 colon): 7.21 µM; TGI (DLD-1 colon): 178 µM; GI50 (EKVX NSCLC): 13.4 µM; TGI (EKVX NSCLC): 57.1 µM and 206 µM; GI50 (HOP-92 NSCLC): 14.2 µM and 11.8 µM; TGI (HOP-92 NSCLC): 50.8 µM and 122 µM and 47.3 µM; GI50 (IGROV1 ovarian): 4.93 µM and 8.27 µM; TGI (IGROV1 ovarian): 119 µM and > 100 µM; GI50 (MALME-3M melanoma): 16.2 µM and 28.2 µM; TGI (MALME-3M melanoma): 51.8 µM and 42.5 µM and 94.5 µM; GI50 (MDA-N): 6.74 µM; TGI (MDA-N): 34.9 µM and 172 µM; GI50 (OVCAR-4 ovarian): 18.9 µM and 26.9 µM; TGI (OVCAR-4 ovarian): 96.9 µM and 135 µM and > 100 µM; GI50 (RPMI-8226 leukemia): 6.53 µM; TGI (RPMI-8226 leukemia): 37.4 µM and 65.2 µM and 45.9 µM; GI50 (SF-539 CNS): 2.45 µM and 3.72 µM; TGI (SF-539 CNS): 54.3 µM and 107 µM and > 100 µM; GI50 (TK-10 renal): 25.7 µM and 20.7 µM; TGI (TK-10 renal): 98.6 µM and 195 µM and > 100 µM

`COc1cc2c([C@@H](OC(=O)c3ccccc3)c3ccc4c(c3)OCO4)nccc2c(OC)c1OC` was tested. Which TGI (DLD-1 colon) did it give?
Its TGI is over 100 µM.

What about the TGI (EKVX NSCLC) of the same compound?
Its TGI is over 100 µM.

And the TGI (HOP-92 NSCLC)?
Its TGI is over 100 µM.

What about the TGI (IGROV1 ovarian) of the same compound?
The TGI was over 100 µM.

And the TGI (MALME-3M melanoma)?
The TGI was over 100 µM.

And the TGI (OVCAR-4 ovarian)?
Its TGI is over 100 µM.

What about the TGI (RPMI-8226 leukemia) of the same compound?
Its TGI is 51 µM.

And the TGI (SF-539 CNS)?
The TGI was over 100 µM.

And the TGI (TK-10 renal)?
Its TGI is over 100 µM.

`COc1ccc(Cl)cc1NC(=O)c1cccc([N+](=O)[O-])c1O` was tested. Which TGI (DLD-1 colon) did it give?
The TGI was over 100 µM.

What about the TGI (EKVX NSCLC) of the same compound?
The TGI was 51.4 µM.

What about the TGI (HOP-92 NSCLC) of the same compound?
Its TGI is 16.6 µM.

And the TGI (IGROV1 ovarian)?
The TGI was over 92.5 µM.

And the TGI (MALME-3M melanoma)?
The TGI was 19.3 µM.

And the TGI (MDA-N)?
The TGI was over 100 µM.

What about the TGI (OVCAR-4 ovarian) of the same compound?
The TGI was over 88.3 µM.

And the TGI (RPMI-8226 leukemia)?
Its TGI is over 69.5 µM.

And the TGI (SF-539 CNS)?
Its TGI is 33 µM.

And the TGI (TK-10 renal)?
Its TGI is over 100 µM.
